Data published in ChEMBL document CHEMBL1287708, “Synthesis, biological evaluation and radiolabelling by 18F-fluoroarylation of a dopamine D3-selective ligand as prospective imaging probe for PET” (Bioorg Med Chem Lett, 2010).
pEC50, pKi: −log10 of the molar value.

How the values were obtained:
[1] = system: brain ventricle (Rattus norvegicus); assay: Drug uptake in Sprague-Dawley rat brain ventricle at 8.5 MBq, iv measured after 45 mins by autoradiography; details: in vivo, 0.75 h
Striatum [2] = assay: Drug uptake in Sprague-Dawley rat striatum at 8.5 MBq, iv measured after 45 mins by autoradiography; type: ADME, organism-based; details: in vivo, 0.75 h
[3] = system: brain ventricle (Rattus norvegicus); assay: Drug uptake in Sprague-Dawley rat brain ventricle at 9.3 MBq, iv measured after 45 mins by autoradiography in presence of 1 mg/kg BP897; details: in vivo, 0.75 h
Striatum [4] = assay: Drug uptake in Sprague-Dawley rat striatum at 9.3 MBq, iv measured after 45 mins by autoradiography in presence of 1 mg/kg BP897; type: ADME, organism-based; set-up: dose 1 mg/kg, route intravenous; details: in vivo, 0.75 h
[5] = Lipophilicity, log D of the compound in n-octanol-phosphate buffered saline at pH 7.4; type: physicochemical
Cortex [6] = assay: Drug uptake in Sprague-Dawley rat cortex at 8.5 MBq, iv measured after 45 mins by autoradiography; type: ADME, organism-based; details: in vivo, 0.75 h
Cortex [7] = assay: Drug uptake in Sprague-Dawley rat cortex at 9.3 MBq, iv measured after 45 mins by autoradiography in presence of 1 mg/kg BP897; type: ADME, organism-based; set-up: dose 1 mg/kg, route intravenous; details: in vivo, 0.75 h
D(3) dopamine receptor [8] = target: T1, D(3) dopamine receptor (Homo sapiens, UniProt P35462); assay: biochemical
T1 sequence (P35462 whole entry): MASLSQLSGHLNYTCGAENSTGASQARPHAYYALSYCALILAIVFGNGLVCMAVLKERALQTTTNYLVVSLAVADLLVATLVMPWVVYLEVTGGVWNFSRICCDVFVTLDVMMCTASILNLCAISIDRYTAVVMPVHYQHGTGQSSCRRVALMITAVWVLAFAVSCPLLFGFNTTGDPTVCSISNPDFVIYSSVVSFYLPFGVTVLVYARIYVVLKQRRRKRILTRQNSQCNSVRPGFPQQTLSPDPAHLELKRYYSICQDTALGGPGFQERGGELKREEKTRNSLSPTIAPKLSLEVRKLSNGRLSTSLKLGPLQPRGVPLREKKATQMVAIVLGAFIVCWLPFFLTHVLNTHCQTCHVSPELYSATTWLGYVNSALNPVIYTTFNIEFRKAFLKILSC
Description: Displacement of [3H]spiperone from human dopamine D3 receptor expressed in CHO cells

D(2) dopamine receptor [9] = target: T2, D(2) dopamine receptor (Homo sapiens, UniProt P14416); assay: Agonist activity at human dopamine receptor D2long expressed in CHO10001 cells assessed as stimulation of incorporation [3H]-thymidine incorporation; type: functional, cell-based
T2 sequence (P14416 whole entry): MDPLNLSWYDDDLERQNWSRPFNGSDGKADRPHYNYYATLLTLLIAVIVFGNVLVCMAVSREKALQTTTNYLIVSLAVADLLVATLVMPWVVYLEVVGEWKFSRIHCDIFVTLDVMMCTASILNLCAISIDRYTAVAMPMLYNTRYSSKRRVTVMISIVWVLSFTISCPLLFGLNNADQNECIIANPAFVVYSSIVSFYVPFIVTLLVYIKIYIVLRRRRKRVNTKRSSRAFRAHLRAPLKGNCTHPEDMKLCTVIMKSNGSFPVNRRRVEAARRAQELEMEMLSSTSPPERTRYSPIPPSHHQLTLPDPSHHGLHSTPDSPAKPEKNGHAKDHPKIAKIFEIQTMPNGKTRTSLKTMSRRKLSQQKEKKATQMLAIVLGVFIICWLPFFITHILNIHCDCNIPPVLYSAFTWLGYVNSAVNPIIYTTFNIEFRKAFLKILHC

D(3) dopamine receptor [10] = target: T1, D(3) dopamine receptor; assay: Agonist activity at human dopamine D3 receptor expressed in CHO dhfr-negative cells assessed as stimulation of [3H]-thymidine incorporation; type: functional, cell-based
[11] = target: 5-hydroxytryptamine receptor 2A (Sus scrofa, UniProt P50129); assay: Displacement of [3H]ketanserin from 5-HT2 receptor in porcine cerebral cortex membranes; type: cell membranes, Membrane
Chain of 5-hydroxytryptamine receptor 2A (P50129 whole entry): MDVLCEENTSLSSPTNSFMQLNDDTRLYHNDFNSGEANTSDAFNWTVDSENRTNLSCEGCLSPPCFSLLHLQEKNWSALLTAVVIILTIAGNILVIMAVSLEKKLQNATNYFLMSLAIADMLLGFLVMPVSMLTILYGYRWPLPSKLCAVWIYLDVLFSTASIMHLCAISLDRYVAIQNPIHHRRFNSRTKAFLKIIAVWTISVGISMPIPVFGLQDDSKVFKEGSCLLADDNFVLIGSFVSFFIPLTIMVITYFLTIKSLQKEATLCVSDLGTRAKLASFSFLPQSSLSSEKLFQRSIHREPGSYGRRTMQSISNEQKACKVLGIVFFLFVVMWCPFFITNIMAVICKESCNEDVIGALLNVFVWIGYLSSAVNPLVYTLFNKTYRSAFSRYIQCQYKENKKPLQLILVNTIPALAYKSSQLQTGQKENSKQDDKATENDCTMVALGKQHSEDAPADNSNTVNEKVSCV

D(4) dopamine receptor = target: T3, D(4) dopamine receptor (Homo sapiens, UniProt P21917); assay: Displacement of [3H]spiperone from human dopamine D4.4 receptor expressed in CHO cells; type: cell-based
T3 sequence (P21917 whole entry): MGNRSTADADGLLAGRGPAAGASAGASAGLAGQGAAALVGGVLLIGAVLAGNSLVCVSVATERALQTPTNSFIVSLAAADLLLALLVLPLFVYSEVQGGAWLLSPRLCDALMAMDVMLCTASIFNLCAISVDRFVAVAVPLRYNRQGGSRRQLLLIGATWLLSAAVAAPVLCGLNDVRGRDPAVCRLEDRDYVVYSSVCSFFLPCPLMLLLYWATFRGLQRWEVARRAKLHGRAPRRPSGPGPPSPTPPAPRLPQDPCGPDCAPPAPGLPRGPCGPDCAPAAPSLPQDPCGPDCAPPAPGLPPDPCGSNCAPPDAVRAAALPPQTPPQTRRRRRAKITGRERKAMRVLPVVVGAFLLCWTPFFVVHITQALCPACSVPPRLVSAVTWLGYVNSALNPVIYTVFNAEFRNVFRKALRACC

[12] = Displacement of [3H][…] from 5-HT1A receptor in porcine cerebral cortex membranes; type: cell membranes, Sus scrofa, Membrane
D(2) dopamine receptor [13] = target: T2, D(2) dopamine receptor; assay: Displacement of [3H]spiperone from human dopamine D2long receptor expressed in CHO cells; type: cell-based
D(1A) dopamine receptor = D(1A) dopamine receptor (Sus scrofa, UniProt P50130); assay: Displacement of [3H][…] from dopamine D1 receptor in porcine cerebral cortex membranes; type: cell membranes, Membrane
Chain of D(1A) dopamine receptor (P50130 whole entry): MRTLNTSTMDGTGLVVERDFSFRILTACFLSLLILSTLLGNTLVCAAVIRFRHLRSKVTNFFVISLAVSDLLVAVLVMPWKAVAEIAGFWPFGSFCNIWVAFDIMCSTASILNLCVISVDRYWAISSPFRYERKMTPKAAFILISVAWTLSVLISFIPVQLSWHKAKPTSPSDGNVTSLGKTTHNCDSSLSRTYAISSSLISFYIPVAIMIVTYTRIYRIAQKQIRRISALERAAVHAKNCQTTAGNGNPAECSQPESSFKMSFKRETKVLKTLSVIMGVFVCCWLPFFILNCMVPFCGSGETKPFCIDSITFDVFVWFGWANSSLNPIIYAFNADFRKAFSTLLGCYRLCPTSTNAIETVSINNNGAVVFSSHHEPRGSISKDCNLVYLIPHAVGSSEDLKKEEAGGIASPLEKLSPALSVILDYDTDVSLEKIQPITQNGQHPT

[14] = Displacement of [3H]prazosin from alpha1 adrenoceptor in porcine cerebral cortex membranes; type: cell membranes, Sus scrofa, Membrane

Row | Drug uptake [1] [cpm/mm2] | Drug uptake (Striatum [2]) [cpm/mm2] | Drug uptake [3] [cpm/mm2] | Drug uptake (Striatum [4]) [cpm/mm2] | logD [5] | Drug uptake (Cortex [6]) [cpm/mm2] | Drug uptake (Cortex [7]) [cpm/mm2] | pKi (D(3) dopamine receptor [8]) | pEC50 (D(2) dopamine receptor [9]) | pEC50 (D(3) dopamine receptor [10]) | pKi [11] | pKi (D(4) dopamine receptor) | pKi [12] | pKi (D(2) dopamine receptor [13]) | pKi (D(1A) dopamine receptor) | pKi [14] | Compound
1 | 38717 | 28851 | 18275 | 3086 | 2.07 | 32293 | 3120 | – | – | – | – | – | – | – | – | – | COc1ccccc1N1CCN(CCCCNC(=O)/C=C/c2ccc([18F])cc2)CC1
2 | – | – | – | – | – | – | – | 9.47 | 8.77 | 8.41 | 6.48 | 7.37 | 7.55 | 7.57 | 5.96 | 8.28 | COc1ccccc1N1CCN(CCCCNC(=O)/C=C/c2ccc(F)cc2)CC1
3 | – | – | – | – | – | – | – | 9.29 | – | – | 6.60 | 6.77 | 7.00 | – | 6.57 | 8.10 | N#[11C]c1cccc(N2CCN(CCN3CCC(C(F)(F)F)CC3)C2=O)c1
